Source: article PMC5077990, “P53 activation inhibits all types of hematopoietic progenitors and all stages of megakaryopoiesis” (Oncotarget, 2016)

Experiments:
[1] = system: p53 pathway in megakaryocytes (MKs); assay: p53 pathway proteins and transcripts in MKs (western-blot, qRT-PCR); type: cell-based, human; conditions: day 7-MKs (legend: day 10-MK), 5 μM for 24 or 48 hours
Experimental: We also explored the effects of p53 stabilization at a later stage of megakaryocytic differentiation. […] Day 7-MKs were treated with 5 μM Nutlin 3a for 24 or 48 hours, which led to an increase in p53, p21, BAX, BCL2 and BCL-XL levels, confirming a functional p53 activity (Figure 6A). […] Similar results were found with day 6-megakaryoblasts treated with two doses of SAR405838 for 72 hours (Figure 6D/6E) without any major effect on the percentage of CD41^+ cells (Figure 6F). […] As shown in Figure 6D/6E, at the dose of 0.5 μM the SAR405838 induced a 50% decreased in the number of viable cells while the apoptotic cells reached 50% of the total cells. We checked if the effect of SAR405838 on MKs could be reverted by the addition of high TPO doses. CD34^+ progenitors were cultured in serum-free medium supplemented with SCF and low dose of TPO (1 ng/mL) for 6 days. Day 6-megakaryoblasts were then treated with 1.5 μM of SAR405838 for 48 hours and various doses of TPO.
In parallel, the expression of P53, BAK, BCL2L1, NOXA, PUMA, BAX, P21 and P53 were quantified by qRT-PCR related to HPRT. C. […] (n=3). […]
PCRs were carried out in the ABI Prism GeneAmp 5700 (Perkin-Elmer) using the Power SYBR-Green PCR Master Mix (ABI) containing the specific primers. The expression levels of all genes were calculated relatively to HPRT or to PPIA housekeeping gene.
Proteins were quantified by Image J software.

[2] = parameters: method as in PMID 23084521, PMID 24309210; conditions: clinical and preclinical data in rats and monkeys; cited from earlier work
[3] = system: CFU-GM (Colony Forming Unit-Granulocyte Macrophage) progenitors from CD34+ cells; assay: Colony assay in methylcellulose, CFU-GM; type: cell-based, human; conditions: CD34+ cells seeded in methylcellulose in the presence of compound; compared to untreated control
Experimental: CD34^+cells were obtained from leukapheresis samples after mobilization of donors after informed consent in agreement with our Institute Ethic Committee (Assistance Publique des Hôpitaux de Paris) and in accordance with the Declaration of Helsinki. CD34^+cells were isolated by a positive selection using an immunomagnetic cell sorting system (AutoMacs; Miltenyi Biotec, Bergisch Gladbach, Germany). 500 to 1000 normal CD34^+cells were plated either in 1% methylcellulose assay (StemCells technologies, Vancouver, Canada) to quantify erythroid (BFU-E) and granulo-monocytic (CFU-GM) progenitors or in serum-free fibrin clot assay for quantification of MK progenitors (CFU-MK) in the absence or presence of various concentration of SAR405838 or MI-219. Cultures in methylcellulose were stimulated by addition of human recombinant growth factors: G-CSF (20 ng/mL), IL-3 (10 ng/mL) SCF (25 ng/mL, Biovitrum AB, Stockholm, Sweden), IL-6 (10 ng/mL), FLT3 (10 ng/mL) and human EPO (1 U/mL). Cultures in fibrin clot were stimulated with 10 ng/mL TPO (Kirin Brewery, Tokyo, Japan) and 25 ng/mL SCF. […] CFU-MK colonies were enumerated at day 12 after labeling by an indirect immuno-alkaline phosphatase staining technique using an anti-CD41a monoclonal antibody (MoAb; Becton Dickinson, le Pont de Claix, France; clone HIP8), as previously described.

[4] = system: BFU-E (Burst Forming Unit-Erythroid) progenitors from CD34+ cells; assay: Colony assay in methylcellulose, BFU-E; type: cell-based, human; conditions: CD34+ cells seeded in methylcellulose in the presence of compound; compared to untreated control
Experimental: (§1) CD34^+cells were obtained from leukapheresis samples after mobilization of donors after informed consent in agreement with our Institute Ethic Committee (Assistance Publique des Hôpitaux de Paris) and in accordance with the Declaration of Helsinki. CD34^+cells were isolated by a positive selection using an immunomagnetic cell sorting system (AutoMacs; Miltenyi Biotec, Bergisch Gladbach, Germany). 500 to 1000 normal CD34^+cells were plated either in 1% methylcellulose assay (StemCells technologies, Vancouver, Canada) to quantify erythroid (BFU-E) and granulo-monocytic (CFU-GM) progenitors or in serum-free fibrin clot assay for quantification of MK progenitors (CFU-MK) in the absence or presence of various concentration of SAR405838 or MI-219. Cultures in methylcellulose were stimulated by addition of human recombinant growth factors: G-CSF (20 ng/mL), IL-3 (10 ng/mL) SCF (25 ng/mL, Biovitrum AB, Stockholm, Sweden), IL-6 (10 ng/mL), FLT3 (10 ng/mL) and human EPO (1 U/mL). Cultures in fibrin clot were stimulated with 10 ng/mL TPO (Kirin Brewery, Tokyo, Japan) and 25 ng/mL SCF. BFU-E and CFU-GM colonies were enumerated at day 14 of culture. CFU-MK colonies were enumerated at day 12 after labeling by an indirect immuno-alkaline phosphatase staining technique using an anti-CD41a monoclonal antibody (MoAb; Becton Dickinson, le Pont de Claix, France; clone HIP8), as previously described.

[5] = system: Day 6 megakaryoblasts (ploidization); assay: MK ploidy by flow cytometry (CD41/CD42/vital Hoechst staining); type: cell-based, human; conditions: day 6 megakaryoblasts treated 72 hours, analysed day 9; SAR405838 at 1 μM; untreated control 4.4 N
Experimental: First, we investigated if MDM2 inhibitors affect MK ploidization. SAR405838 induced a significant reduction in the mean ploidy (3.0 N at the dose of 1 μM versus 4.4 N for untreated control or for MI-219 treatment) (Supplementary Figure S1). page 1: P53 activation inhibits all types of hematopoietic progenitors and all stages of megakaryopoiesis SUPPLEMENTARY FIGURE Supplementary Figure S1: Effect of SAR405838 on polyploidization. Day 6 megakaryoblasts were treated for 72 hours with various doses of MI-219 or SAR405838. At day 9, ploidy was analyzed by flow cytometry using a CD41/CD42/vital Hoechst staining. N represents the mean ploidy. As shown, SAR405838 induced a significant reduction in the mean ploidy (3.0N at the dose of 1μM versus 4.4N for control or for MI-219 treatment). The Figure illustrates a representative experiment in triplicate. Two other experiments in triplicate gave similar results. […]

[6] = system: CFU-MK (Colony Forming Unit-Megakaryocyte) progenitors from CD34+ cells; assay: Colony assay in fibrin clot, CFU-MK; type: cell-based, human; conditions: CD34+ cells seeded in fibrin clot in the presence of compound; compared to untreated control
Experimental: as §1, with “CFU-MK colonies were enumerated at day 12 after labeling by an indirect immuno-alkaline phosphatase staining technique using an anti-CD41a monoclonal antibody (MoAb; Becton Dickinson, le Pont de Claix, France; clone HIP8), as previously described.” left out

Structure (SMILES): COc1ccc(C2=N[C@@H](c3ccc(Cl)cc3)[C@@H](c3ccc(Cl)cc3)N2C(=O)N2CCNC(=O)C2)c(OC(C)C)c1 [Nutlin 3a]
- p53, p21, BAX, BCL2 and BCL-XL levels (western-blot) [1]: increase

Structure (SMILES): CCOc1cc(C(C)(C)C)ccc1C1=N[C@@](C)(c2ccc(Cl)cc2)[C@@](C)(c2ccc(Cl)cc2)N1C(=O)N1CCN(CCCS(C)(=O)=O)CC1 [RG7112]
- hematological adverse effect [2]: major thrombocytopenia

Structure (SMILES): CC(C)(C)C[C@H]1N[C@@H](C(=O)NCC[C@H](O)CO)[C@H](c2cccc(Cl)c2)[C@@]12C(=O)Nc1cc(Cl)c(F)cc12.Cl [MI-219]
- dose inducing a 50% reduction of CFU-GM numbers [3]: significant less potent activity compared to SAR405838
- dose inducing a 50% reduction of BFU-E numbers [4]: significant less potent activity compared to SAR405838
- mean ploidy [5]: 4.4 N
- dose inducing a 50% reduction of CFU-MK numbers [6]: significant less potent activity compared to SAR405838

Structure (SMILES): COc1ccc(C2=N[C@@H](c3ccc(Cl)cc3)[C@@H](c3ccc(Cl)cc3)N2C(=O)N2CCNC(=O)C2)c(OC(C)C)c1 [Nutlin]
- hematological adverse effect [2]: major thrombocytopenia
